{
  "source": "patent US20240252454A1",
  "about": "“COMPOSITION COMPRISING AN INHIBITOR OF MITOCHONDRIAL TRANSCRIPTION” (LEAD DISCOVERY CENTER GMBH, priority 2021, published 2024)",
  "assay_in_all_cases": "CellTiter-GLO (CTG) assay, combinatorial matrix",
  "format_in_all_cases": "cell-based",
  "key": {"A2780": {"test_system": "A2780", "details": "for combination of IMT and PARPi compared to treatment with just the PARPi alone: A2780, CTG matrix, 30 μM to 10 nM IMT (3S)-1-[(2R)-2-[4-(2-chloro-4-fluoro-phenyl)-2-oxo-chromen-7-yl]oxypropanoyl]piperidine-3-carboxylic acid + 30 μM to 40 nM of the labelled PARPi", "method": "(§1) To determine the in vitro cellular viability, cellular ATP concentrations were measured using a luminescence-based homogenous assay format, as described here. […] Optimal cell density for each cell line was determined to guarantee linearity. For viability assays with compounds, cells were then seeded at a density of 200 to 1000 per well in 25 μl in 384-well plates (Greiner Bio-One, Frickenhausen, Germany). After overnight incubation at 37° C./5% CO2, 25 nl or 75 nl compounds were added to each sample well by using BIOMEK FXP Laboratory Automation Workstation (Beckman Coulter, USA). Wells with cells and 0.1% or 0.3% DMSO in culture medium were used as positive controls, wells with cells and 10 μM staurosporine (Selleck Chemicals, Huston, USA) in culture medium were used as negative controls. Upon incubation with compounds for 72 h at 37° C./5% CO2 25 μl Cell Titer Glo reagent (Promega, Madison, USA, European Pat. No. 1131441, U.S. Pat. Nos. 7,083,911, 7,452,663 and 7,732,128) 1:2 diluted with cell culture medium) was added to each well to determine cell viability. 384well-plates were placed for 2 min on an orbital microplate shaker and incubated for further 10 min at room temperature resulting in a stabilization of light signal. Luminescence was measured by Envision Plate Reader (Perkin Elmer, USA).\n(§2) All in vitro cell culture experiments were carried out under near physiological glucose concentrations (5 mM) in at least two independent replicates."}, "HEC59": {"test_system": "HEC59", "details": "HEC59, 72 hours, IMT at the μM of c0, untreated control =100%, read-out: Measured residual activity (cellular ATP content)", "method": "as §1, §2\n(§3) To establish the method described, N,N-dimethyl-2-[4-(o-tolyl)-2-oxo-chromen-7-yl]oxy-propanamide, (3S)-1-[2-[4-(2-chloro-4-fluoro-phenyl)-2-oxo-chromen-7-yl]oxypropanoyl]piperidine-3-carboxylic acid, (3S)-1-[(2R)-2-[4-(2-chloro-4-fluoro-phenyl)-2-oxo-chromen-7-yl]oxypropanoyl]piperidine-3-carboxylic acid and BAY-876 were first examined with regard to their effect on the cell growth of twelve different tumour cell lines and the IC50 values were determined. This initial study was followed by validation experiments in a matrix format and in the CTG assay, as described under Example 1), in two tumour cell lines from uterine and ovarian carcinoma (HEC59 and A2780), as well as in primary human blood cells (PBMC) (Table 7).\n(§4) Combinations of one concentration of IMT (μM; y-axis) and 30 μM-33 nM BAY-876 (x-axis) were incubated for 72 hours with HEC59, hPBMCs or A2780 and then the cellular ATP-content was determined using the CellTiter-GLO assay format. A: Measured residual activity (%) based on an untreated control group (=100%). B: The combinatorial indices are provided, based on the reference groups treated with the corresponding concentration of only one inhibitor class, according to Berenbaum and Cou & Talalay. <1=synergism, 1-2=additivity, 2>=antagonism."}, "[1]": {"test_system": "primary human blood cells (PBMC)", "details": "Homo sapiens, PBMC, hPBMCs, 72 hours, IMT at the μM of c0, untreated control =100%, read-out: Measured residual activity (cellular ATP content)", "method": "as §1, §2, §3, §4"}},
  "note": "Like-named read-outs stand apart in the source and are kept apart here.",
  "data": [
    {"smiles": "CNCc1ccc(-c2[nH]c3cc(F)cc4c3c2CCNC4=O)cc1", "note": "[Rucaparib]", "values": [
      {"measurement": "combination of IMT and PARPi compared to treatment with just the PARPi alone", "setting": "A2780", "value": "advantage of the combination"},
      {"measurement": "activity at 0.04 µM", "setting": "A2780; Homo sapiens, A2780, 72 hours, Rucaparib 0.04 μM, IMT (3S)-1-[(2R)-2-[4-(2-chloro-4-fluoro-phenyl)-2-oxo-chromen-7-yl]oxypropanoyl]piperidine-3-carboxylic acid at the μM of c0, untreated control =100%, read-out: Measured residual activity (cellular ATP content)", "value": 90, "unit": "%"},
      {"measurement": "activity at 0.1 µM", "setting": "A2780; Homo sapiens, A2780, 72 hours, Rucaparib 0.1 μM, IMT (3S)-1-[(2R)-2-[4-(2-chloro-4-fluoro-phenyl)-2-oxo-chromen-7-yl]oxypropanoyl]piperidine-3-carboxylic acid at the μM of c0, untreated control =100%, read-out: Measured residual activity (cellular ATP content)", "value": 70, "unit": "%"},
      {"measurement": "activity at 0.4 µM", "setting": "A2780; Homo sapiens, A2780, 72 hours, Rucaparib 0.4 μM, IMT (3S)-1-[(2R)-2-[4-(2-chloro-4-fluoro-phenyl)-2-oxo-chromen-7-yl]oxypropanoyl]piperidine-3-carboxylic acid at the μM of c0, untreated control =100%, read-out: Measured residual activity (cellular ATP content)", "value": 42, "unit": "%"},
      {"measurement": "activity at 1.1 µM", "setting": "A2780; Homo sapiens, A2780, 72 hours, Rucaparib 1.1 μM, IMT (3S)-1-[(2R)-2-[4-(2-chloro-4-fluoro-phenyl)-2-oxo-chromen-7-yl]oxypropanoyl]piperidine-3-carboxylic acid at the μM of c0, untreated control =100%, read-out: Measured residual activity (cellular ATP content)", "value": 21, "unit": "%"},
      {"measurement": "activity at […]", "setting": "A2780; Homo sapiens, A2780, 72 hours, Rucaparib 3.3 μM, IMT (3S)-1-[(2R)-2-[4-(2-chloro-4-fluoro-phenyl)-2-oxo-chromen-7-yl]oxypropanoyl]piperidine-3-carboxylic acid at the μM of c0, untreated control =100%, read-out: Measured residual activity (cellular ATP content)", "value": 6, "unit": "%"},
      {"measurement": "activity at 10 µM", "setting": "A2780; Homo sapiens, A2780, 72 hours, Rucaparib 10 μM, IMT (3S)-1-[(2R)-2-[4-(2-chloro-4-fluoro-phenyl)-2-oxo-chromen-7-yl]oxypropanoyl]piperidine-3-carboxylic acid at the μM of c0, untreated control =100%, read-out: Measured residual activity (cellular ATP content)", "value": 0, "unit": "%"},
      {"measurement": "activity at 30 µM", "setting": "A2780; Homo sapiens, A2780, 72 hours, Rucaparib 30 μM, IMT (3S)-1-[(2R)-2-[4-(2-chloro-4-fluoro-phenyl)-2-oxo-chromen-7-yl]oxypropanoyl]piperidine-3-carboxylic acid at the μM of c0, untreated control =100%, read-out: Measured residual activity (cellular ATP content)", "value": 0, "unit": "%"}
    ]},
    {"smiles": "Cc1c(NC(=O)c2cc(C(N)=O)nc3cc(F)ccc23)c(C(F)(F)F)nn1Cc1ccc(C#N)cc1", "note": "[BAY-876]", "values": [
      {"measurement": "activity at 0.04 µM", "setting": "A2780; Homo sapiens, A2780, 72 hours, BAY-876 0.04 μM, IMT at the μM of c0, untreated control =100%, read-out: Measured residual activity (cellular ATP content)", "value": 88, "unit": "%"},
      {"measurement": "activity at 0.123 µM", "setting": "A2780; Homo sapiens, A2780, 72 hours, BAY-876 0.123 μM, IMT at the μM of c0, untreated control =100%, read-out: Measured residual activity (cellular ATP content)", "value": 78, "unit": "%"},
      {"measurement": "activity at […]", "setting": "A2780; Homo sapiens, A2780, 72 hours, BAY-876 0.37 μM, IMT at the μM of c0, untreated control =100%, read-out: Measured residual activity (cellular ATP content)", "value": 90, "unit": "%"},
      {"measurement": "activity at 3.33 µM", "setting": "A2780; Homo sapiens, A2780, 72 hours, BAY-876 3.33 μM, IMT at the μM of c0, untreated control =100%, read-out: Measured residual activity (cellular ATP content)", "value": 78, "unit": "%"},
      {"measurement": "activity at 10 µM", "setting": "A2780; Homo sapiens, A2780, 72 hours, BAY-876 10 μM, IMT at the μM of c0, untreated control =100%, read-out: Measured residual activity (cellular ATP content)", "value": 51, "unit": "%"},
      {"measurement": "activity at 30 µM", "setting": "A2780; Homo sapiens, A2780, 72 hours, BAY-876 30 μM, IMT at the μM of c0, untreated control =100%, read-out: Measured residual activity (cellular ATP content)", "value": 10, "unit": "%"},
      {"measurement": "activity at 0.041 µM", "setting": "HEC59; BAY-876 0.041 μM", "value": 74, "unit": "%"},
      {"measurement": "activity at 0.123 µM", "setting": "HEC59; BAY-876 0.123 μM", "value": 59, "unit": "%"},
      {"measurement": "activity at […]", "setting": "HEC59; BAY-876 0.370 μM", "value": 58, "unit": "%"},
      {"measurement": "activity at 1.111 µM", "setting": "HEC59; BAY-876 1.111 μM", "value": 32, "unit": "%"},
      {"measurement": "activity at […]", "setting": "HEC59; BAY-876 3.3 μM", "value": 18, "unit": "%"},
      {"measurement": "activity at 10 µM", "setting": "HEC59; BAY-876 10 μM", "value": 11, "unit": "%"},
      {"measurement": "activity at 30 µM", "setting": "HEC59; BAY-876 30 μM", "value": 8, "unit": "%"},
      {"measurement": "activity at 0.04 µM", "setting": "[1]; BAY-876 0.04 μM", "value": 104, "unit": "%"},
      {"measurement": "activity at […]", "setting": "[1]; BAY-876 0.12 μM", "value": 109, "unit": "%"},
      {"measurement": "activity at […]", "setting": "[1]; BAY-876 0.37 μM", "value": 90, "unit": "%"},
      {"measurement": "activity at 3.33 µM", "setting": "[1]; BAY-876 3.33 μM", "value": 98, "unit": "%"},
      {"measurement": "activity at 10 µM", "setting": "[1]; BAY-876 10 μM", "value": 87, "unit": "%"},
      {"measurement": "activity at 30 µM", "setting": "[1]; BAY-876 30 μM", "value": 101, "unit": "%"}
    ]},
    {"smiles": "C[C@]1(c2nc3c(C(N)=O)cccc3[nH]2)CCCN1", "note": "[Veliparib]", "values": [
      {"measurement": "combination of IMT and PARPi compared to treatment with just the PARPi alone", "setting": "A2780", "value": "advantage of the combination"},
      {"measurement": "activity at 0.04 µM", "setting": "A2780; Homo sapiens, A2780, 72 hours, Veliparib 0.04 μM, IMT (3S)-1-[(2R)-2-[4-(2-chloro-4-fluoro-phenyl)-2-oxo-chromen-7-yl]oxypropanoyl]piperidine-3-carboxylic acid at the μM of c0, untreated control =100%, read-out: Measured residual activity (cellular ATP content)", "value": 99, "unit": "%"},
      {"measurement": "activity at 0.1 µM", "setting": "A2780; Homo sapiens, A2780, 72 hours, Veliparib 0.1 μM, IMT (3S)-1-[(2R)-2-[4-(2-chloro-4-fluoro-phenyl)-2-oxo-chromen-7-yl]oxypropanoyl]piperidine-3-carboxylic acid at the μM of c0, untreated control =100%, read-out: Measured residual activity (cellular ATP content)", "value": 99, "unit": "%"},
      {"measurement": "activity at 0.4 µM", "setting": "A2780; Homo sapiens, A2780, 72 hours, Veliparib 0.4 μM, IMT (3S)-1-[(2R)-2-[4-(2-chloro-4-fluoro-phenyl)-2-oxo-chromen-7-yl]oxypropanoyl]piperidine-3-carboxylic acid at the μM of c0, untreated control =100%, read-out: Measured residual activity (cellular ATP content)", "value": 97, "unit": "%"},
      {"measurement": "activity at 1.1 µM", "setting": "A2780; Homo sapiens, A2780, 72 hours, Veliparib 1.1 μM, IMT (3S)-1-[(2R)-2-[4-(2-chloro-4-fluoro-phenyl)-2-oxo-chromen-7-yl]oxypropanoyl]piperidine-3-carboxylic acid at the μM of c0, untreated control =100%, read-out: Measured residual activity (cellular ATP content)", "value": 89, "unit": "%"},
      {"measurement": "activity at […]", "setting": "A2780; Homo sapiens, A2780, 72 hours, Veliparib 3.3 μM, IMT (3S)-1-[(2R)-2-[4-(2-chloro-4-fluoro-phenyl)-2-oxo-chromen-7-yl]oxypropanoyl]piperidine-3-carboxylic acid at the μM of c0, untreated control =100%, read-out: Measured residual activity (cellular ATP content)", "value": 85, "unit": "%"},
      {"measurement": "activity at 10 µM", "setting": "A2780; Homo sapiens, A2780, 72 hours, Veliparib 10 μM, IMT (3S)-1-[(2R)-2-[4-(2-chloro-4-fluoro-phenyl)-2-oxo-chromen-7-yl]oxypropanoyl]piperidine-3-carboxylic acid at the μM of c0, untreated control =100%, read-out: Measured residual activity (cellular ATP content)", "value": 43, "unit": "%"},
      {"measurement": "activity at 30 µM", "setting": "A2780; Homo sapiens, A2780, 72 hours, Veliparib 30 μM, IMT (3S)-1-[(2R)-2-[4-(2-chloro-4-fluoro-phenyl)-2-oxo-chromen-7-yl]oxypropanoyl]piperidine-3-carboxylic acid at the μM of c0, untreated control =100%, read-out: Measured residual activity (cellular ATP content)", "value": 6, "unit": "%"}
    ]}
  ]
}
